Test results from patent US20190030036A1, “PHOSPHODIESTERASE INHIBITOR TREATMENT” (Cyrano Therapeutics, Inc., priority 2013, published 2019).

Experiments:
[1] = Plasma theophylline level, intranasal theophylline pilot study (Example 7); format: in vivo, human; details: intranasal theophylline 20 μg per naris once a day; eight patients
Source text: Blood was obtained by venipuncture to collect plasma and red blood cells used to measure trace metals (Cu, Zn, Mg), various enzymes, theophylline and other chemical moieties.

[2] = tested on: patients with hyposmia and hypogeusia; assay: Gustometry (DT, RT, ME, HR for 4 tastants) (Example 8); format: in vivo, human
Source text: Measurements included determination of detection thresholds (DTs), recognition thresholds (RTs), magnitude estimation (ME), and hedonic response (HR) for 4 odors (e.g., pyridine [dead fish], nitrobenzene [bitter almond], thiophene [petroleum], and amyl acetate [banana oil]) (olfactometry) and for 4 tastants (e.g., sodium chloride [salt], sucrose [sweet], […] [sour], and urea [bitter]) (gustometry).

patients with hyposmia [3] = assay: Side effects of oral theophylline (Example 1); format: in vivo, human; details: oral theophylline 200-800 mg daily in divided doses in middle of meals
Source text: Patients were required to take the drug in divided doses in middle of meals (breakfast and lunch).

patients with hyposmia [4] = assay: Subjective taste and smell response, intranasal theophylline pilot study (Example 7); details: intranasal theophylline 20 μg per naris once a day, four weeks; six of first eight patients
Source text: These patients were previously treated with oral theophylline or were switched from oral theophylline to intranasal theophylline at the start of the study. Selection for inclusion in the intranasal study was based upon several criteria. 1) non-response to oral theophylline; 2) severe side effects with oral theophylline that prevented reaching a dose of sufficient strength to restore smell function; and/or 3) preference for intranasal medication over oral medication.
Subjective responses to treatment were obtained independent of any interaction with the clinical staff by using a scale of 0-100 to measure response of taste function and smell function to treatment with 0 indicating no response, 100 indicating return to normal function and intermediate numbers indicating an intermediate response.
The patients inserted a plastic syringe containing 0.4 ml of fluid (20 μg theophylline) into each naris once a day. […] The drug dose was delivered through a plastic nipple which fitted snugly onto the filled syringe which was attached directly to the nipple. One nipple was supplied for each set of two syringes in each application kit. The patient fitted the nipple on one syringe, placed the nipple securely into the lower naris and injected the contents of the syringe directly into the lower vault of one naris accompanied by a modest inhalation. […]

cAMP = assay: Parotid saliva cAMP after oral theophylline (Example 2); format: in vivo, human; details: for cAMP: parotid saliva
Protocol: Parotid saliva was collected from each patient by application of a Lashley cup over Stensen's duct with lingual stimulation by placement of concentrated lemon juice. Saliva was collected in plastic tubes and stored at −20° C. until assayed. cAMP and cGMP were measured in saliva by a sensitive 96 plate spectrophotometric assay (R&D Systems, Minneapolis, Minn.).
All patients were placed in a fixed design open label clinical trial with treatment with oral theophylline. Treatment consisted of fixed treatment periods of two-eight months with sequential doses of the drug at 200 mg, 400 mg and 600 mg. At termination of each of these intervals, patients returned to study site for reevaluation. At the end of each interval subjective responses to treatment were measured with a modification of the 0-100 scale previously used. Subjective responses to treatment were graded on a sliding scale from −100−0-+100 with patients recording improvement (+0-+100), no improvement (0) or worsening (0-−100) of their overall smell function. If overall smell function improved ≥5% they were considered to improve clinically (1). If smell function improved <5% they were considered not to improve (1). At the end of each interval subjective measurements of smell function, measurements of DT, RT, ME and H and measurements of parotid saliva for levels of cAMP and cGMP were obtained. In addition, blood plasma was obtained by venipuncture, placed in ice into zinc free tubes which contained 100 mg zinc free heparin, centrifuged at 3000 rpm for 10-20 min, the plasma transferred to plastic PCR tubes and stored at −20° C. until assayed. Theophylline was assayed by a fluorescence polarization assay (Abbott, Chicago, Ill.), as previously described.
Data for the cyclic nucleotides from these 31 patients was not analyzed until the entire study of the 312 patients in Example 1 was assembled and analyzed in its entirety. After completion of these analyses, all data for parotid saliva cAMP and cGMP from all patients in whom salivary cAMP and cGMP were obtained were assembled. Levels of salivary cyclic nucleotides varied widely. Initially, without external criteria, there was no way to understand these disparate data. […] In a similar manner, measurements of each patient's plasma theophylline level at each dosage of theophylline (at 200 mg, 400 mg, 600 mg of theophylline) were categorized. The two patient groups were also analyzed post hoc with respect to type of smell loss and etiology of smell loss.

asthmatic patients = assay: sGaw after inhaled dry powder in asthmatic patients (Examples 5, 6)
Protocol: (§1) To test this theory, asthmatic patients are enrolled in a dose escalating single blind study. On arrival to the clinic, subjects are allowed to rest for 20 minutes before baseline measurements of FEV1 (six recordings) and sGaw (five recordings) are made. Subjects receive a dry powder dispenser loaded with a dose of 2 mg theophylline or a dry powder carrier. […] After each inhalation, measurements of sGaw are made at 1, 3, 5, 10, 15, 20, 25, and 30 minutes.
On completion of the last recording, subjects inhale a 200 μg dose of salbutamol from a metered inhaler and a further measurement of sGaw is made after 15 minutes. Subjects are also monitored for coughing and are questioned about the taste of the drug.
as §1, with “Asthmatic patients” for “To test this theory, asthmatic patients”, “of 1” for “of 2”, “mg IBMX formulated as a dry powder” for “mg theophylline”
On completion of the last recording, subjects inhale a 200 μg dose of salbutamol from a metered inhaler and a further measurement of sGaw made after 15 minutes. Subjects are also be monitored for coughing and are questioned about the taste of the drug.

[5] = inhaled dry powder 2 mg theophylline

Cn1c(=O)c2[nH]cnc2n(C)c1=O [theophylline]
plasma theophylline levels [1]: zero
Magnitude estimations for all tastants ([2]; intranasal theophylline vs before any treatment or after oral theophylline): higher (more intense)
DTs and RTs for all tastants ([2]; intranasal theophylline vs before treatment or after oral theophylline): lower (more sensitive)
Side effects (patients with hyposmia [3]): generally minimal
patients with subjective improvement in smell function (patients with hyposmia [4]): 75%
increase of saliva cAMP levels above baseline (cAMP; oral theophylline 200 mg, improved patients, not significant): 10%
increase of saliva cAMP levels over baseline (cAMP; oral theophylline 400 mg, improved group, not statistically significant): 40%
increase of saliva cAMP levels above initial values (cAMP; oral theophylline 600 mg, improved patients, significant): 67%
cAMP (cAMP; oral theophylline 200 mg, patients with improved smell function (16)): 0.96 ± 0.13 pmol/mL
cAMP (cAMP; oral theophylline 200 mg, patients with unimproved smell function (9)): 0.78 ± 0.26 pmol/mL
cAMP (cAMP; oral theophylline 400 mg, patients with improved smell function (12)): 1.22 ± 0.33 pmol/mL
cAMP (cAMP; oral theophylline 400 mg, patients with unimproved smell function (5)): 0.95 ± 0.26 pmol/mL
cAMP (cAMP; oral theophylline 600 mg, patients with unimproved smell function (9)): 0.56 ± 0.21 pmol/mL
mean serum theophylline level (during intranasal theophylline 20 μg/d in each naris): 0.0 (0.0)
mean (SEM) serum theophylline level (human, in vivo, po): 6.4 (2.0) mg/L
sGaw above the baseline measurement (asthmatic patients; after 30 minutes, inhaled dry powder 2 mg theophylline): 20%
taste and coughing (asthmatic patients; dry powder formulation of theophylline vs nebulized liquid): without the unpleasant taste or the induction of coughing
increase in sGaw relative to 200 μg inhaled salbutamol (asthmatic patients; [5]): comparable
time until sGaw baseline is reached (asthmatic patients; [5]): 1 h
